For test [1], the target named is T1, human XIAP_BIR3 domain purified protein (Homo sapiens, UniProt P98170).
T1 construct: purchased R & D
Nature of the test: XIAP binding inhibitory activity (HTRF, b-Smac ligand). The settings on record: for inhibition at 3 µM: concentration of the test compound 3 μM, first symbol of cell, read-out: XIAP binding inhibition rate; for IC50: second symbol of cell, read-out: XIAP binding inhibition IC50 value. As for the experimental part:
Human XIAP binding inhibitory activity was measured by the Homogeneous Time Resolved Fluorescence (HTRF) method with using commercially available human XIAP_BIR3 domain purified protein (R & D) and as a ligand a Smac N-terminal peptide (AVPIAQK (SEQ ID NO: 1)) (hereinafter referred to as “b-Smac”; Peptide Research Laboratories, Inc.) biotinylated at the C-terminus according to a conventional method.
The HTRF method will be described in detail below.
The test compound diluted with a reaction buffer (25 mM HEPES Buffer containing 100 mM NaCl, 0.1% BSA, and 0.1% triton X-100, pH 7.5) was added to a 384-well white shallow bottom plate (Greiner 784076) at 1 μL/well and flash centrifuged for 30 seconds. Subsequently, human XIAP_BIR3 domain purified protein was diluted with the reaction buffer to obtain a 90 nM sample diluent, and the resultant sample diluent was added to the above-mentioned white superficial plate at 4.5 μL/well and flash centrifuged for 30 seconds. Subsequently, b-Smac diluted to 90 nM with the reaction buffer was added to the above-mentioned white superficial plat at 4.5 μL/well and flash centrifuged for 30 seconds. A mixed solution of Anti-6 HIS-Cryptate (Eu^3+ Cryptate-conjugated mouse monoclonal antibody anti-6 Histidine; cisbio) and Streptavidin-XL^eat (Highgrade XL665-conjugated streptavidin; cisbio) both diluted 100-fold with HTRF detection buffer (cisbio) at a volume ratio of 1:1 was added to the above white superficial plate at 10 μL/well. After flash centrifuging the white shallow bottom plate for 30 seconds, the white shallow bottom plate was left at room temperature for 4 hours or more in the dark. The white superficial plate after being left was subjected to fluorescence intensity measurement (excitation wavelength: 320 nm, fluorescence wavelength: 665 nm and 615 nm) by EnVision (Perkin Elmer). The binding inhibition rate (%) was calculated based on the HTRF ratio in the presence of the test compound to the HTRF ratio in the absence of the test compound (fluorescence intensity at 665 nm/fluorescence intensity at 615 nm).
The XIAP binding inhibition rate (%) of test compounds was evaluated.

The next test has as its target T2, IRAK-M (Homo sapiens, UniProt Q9Y616).
T2 sequence (Q9Y616 1-596): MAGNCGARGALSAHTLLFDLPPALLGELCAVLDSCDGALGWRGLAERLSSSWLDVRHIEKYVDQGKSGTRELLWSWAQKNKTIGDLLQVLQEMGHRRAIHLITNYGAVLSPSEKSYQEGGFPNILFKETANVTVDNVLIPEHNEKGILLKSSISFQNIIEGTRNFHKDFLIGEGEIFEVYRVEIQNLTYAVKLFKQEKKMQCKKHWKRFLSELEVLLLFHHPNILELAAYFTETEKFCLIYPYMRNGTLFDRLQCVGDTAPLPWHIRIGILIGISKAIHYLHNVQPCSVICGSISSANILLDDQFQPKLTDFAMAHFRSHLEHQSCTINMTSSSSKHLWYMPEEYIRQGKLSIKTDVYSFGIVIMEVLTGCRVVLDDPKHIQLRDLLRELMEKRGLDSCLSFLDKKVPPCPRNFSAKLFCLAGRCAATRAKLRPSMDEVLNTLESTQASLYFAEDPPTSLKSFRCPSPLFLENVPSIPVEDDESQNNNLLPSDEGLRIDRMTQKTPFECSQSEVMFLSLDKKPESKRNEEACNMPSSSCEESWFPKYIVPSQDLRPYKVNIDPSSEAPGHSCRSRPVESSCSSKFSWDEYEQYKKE
The test is described as follows: IRAK-M binding inhibitory activity (KINOMEscan active site-dependent competitive assay). Set-up: purchased Eurofins Discover X. The settings on record: for IC50: second symbol of cell, read-out: IRAK-M binding inhibition IC50 value; for remaining binding at 1 µM: concentration of the test compound 1 μM, first symbol of cell, read-out: IRAK-M binding inhibition activity % Ctrl. A digest of the protocol:
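Readout given as % Ctrl, with DMSO as 100% and a control compound as 0%, scaling the test compound signal between them. Binding to human IRAK-M was assessed by KINOMEscan competition at the kinase active site.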

T1 sequence (P98170 252-356 limits assumed): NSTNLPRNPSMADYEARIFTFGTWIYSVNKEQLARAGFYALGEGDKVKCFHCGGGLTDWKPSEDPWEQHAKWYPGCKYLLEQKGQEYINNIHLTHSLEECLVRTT

As for `CN[C@@H](C)C(=O)N[C@H](C(=O)N1CCN(C(=O)c2cc3cc(F)ccc3n2CC(=O)N2CCOC[C@@H]2COc2cc(CN3CCC(Oc4ccnc5ccsc45)CC3)on2)[C@@H](C)C1)C1CCCCC1` [Example 46, (S)-N-((S)-1-cyclohexyl-2-((S)-4-(5-fluoro-1-(2-oxo-2-((R)-3-(((5-((4-(thieno[3,2-b]pyridin-7-yloxy)piperidin-1-yl)methyl)isoxazol-3-yl)oxy)methyl)morpholino)ethyl)-1H-indole-2-carbonyl)-3-methylpiperazin-1-yl)-2-oxoethyl)-2-(methylamino)propanamide], in test [1], the inhibition at 3 µM is over 25%. Moreover, the IC50 on IRAK-M was 100 to 300 nM.

Take `CN[C@@H](C)C(=O)N[C@H](C(=O)N1CCN(C(=O)c2c(OCCOCCOCCOCCOc3cc(CN4CCC(Oc5ccnc6ccsc56)CC4)on3)c3cc(F)c(F)cc3n2C)CC1)C1CCCCC1` [Example 23, (S)-N-((S)-1-cyclohexyl-2-(4-(5,6-difluoro-1-methyl-3-(2-(2-(2-(2-((5-((4-(thieno[3,2-b]pyridin-7-yloxy)piperidin-1-yl)methyl)isoxazol-3-yl)oxy)ethoxy)ethoxy)ethoxy)ethoxy)-1H-indole-2-carbonyl)piperazin-1-yl)-2-oxoethyl)-2-(methylamino)propanamide]: the inhibition at 3 µM in test [1] lay within 25 to 50%. The remaining binding at 1 µM at IRAK-M is 25 to 50%.

Take `CN[C@@H](C)C(=O)N[C@H](C(=O)N1CCN(C(=O)c2c(C(=O)NCCOCCOCCOc3cc(CN4CCC(Oc5ccnc6ccsc56)CC4)on3)c3cc(F)c(F)cc3n2C)C[C@H]1C)C1CCCCC1` [Example 10, 2-((R)-4-((S)-2-cyclohexyl-2-((S)-2-(methylamino)propanamido)acetyl)-3-methylpiperazine-1-carbonyl)-5,6-difluoro-1-methyl-N-(2-(2-(2-((5-((4-(thieno[3,2-b]pyridin-7-yloxy)piperidin-1-yl)methyl)isoxazol-3-yl)oxy)ethoxy)ethoxy)ethyl)-1H-indole-3-carboxamide]: the IC50 in test [1] fell in the range of 300 to 3000 nM. Also, at IRAK-M, the remaining binding at 1 µM was in the range of 25 to 50%.

Consider `CN[C@@H](C)C(=O)N[C@H](C(=O)N1CCN(C(=O)c2c(C(=O)NCCOCCOCCOc3ccc(S(=O)(=O)N4CCC(Oc5ncnc6ccsc56)CC4)cc3)c3ccc(OC)cc3n2C)CC1)C1CCCCC1` [Example 2, 2-(4-((S)-2-Cyclohexyl-2-((S)-2-(methylamino)propanamido)acetyl)piperazine-1-carbonyl)-6-methoxy-1-methyl-N-(2-(2-(2-(4-((4-(thieno[3,2-d]pyrimidin-4-yloxy)piperidin-1-yl)sulfonyl)phenoxy)ethoxy)ethoxy)ethyl)-1H-indole-3-carboxamide], for which the 50% inhibitory concentration (IC50) lay in the range of 300 to 3000 nM in test [1] and 300 to 1000 nM at IRAK-M.

As for `CN[C@@H](C)C(=O)N[C@H](C(=O)N1CCN(C(=O)c2c(C(=O)N(C)CCOCCOCCOc3cc(CN4CCC(Oc5ccnc6ccsc56)CC4)on3)c3cc(F)ccc3n2C)CC1)[C@H](O)C(C)C` [Example 14, 5-fluoro-2-(4-((2S,3R)-3-hydroxy-4-methyl-2-((S)-2-(methylamino)propanamido)pentanoyl)piperazine-1-carbonyl)-N,1-dimethyl-N-(2-(2-(2-((5-((4-(thieno[3,2-b]pyridin-7-yloxy)piperidin-1-yl)methyl)isoxazol-3-yl)oxy)ethoxy)ethoxy)ethyl)-1H-indole-3-carboxamide], the IC50 in test [1] was 3000 to 30000 nM. Moreover, the remaining binding at 1 µM at IRAK-M was under 25%.

For `CN[C@@H](C)C(=O)N[C@H](C(=O)N1CCN(C(=O)c2c(OCCOCCOc3cc(CN4CCC(Oc5ccnc6ccsc56)CC4)on3)c3cc(F)c(F)cc3n2C)CC1)C1CCCCC1` [Example 22, (S)-N-((S)-1-cyclohexyl-2-(4-(5,6-difluoro-1-methyl-3-(2-(2-((5-((4-(thieno[3,2-b]pyridin-7-yloxy)piperidin-1-yl)methyl)isoxazol-3-yl)oxy)ethoxy)ethoxy)-1H-indole-2-carbonyl)piperazin-1-yl)-2-oxoethyl)-2-(methylamino)propanamide], the inhibition at 3 µM in test [1] lay within 25 to 50%. Moreover, at IRAK-M, the remaining binding at 1 µM is 25 to 50%.

For `CN[C@@H](C)C(=O)N[C@H](C(=O)N1CCN(C(=O)c2c(C(=O)NCCOCCOCCOc3cc(CN4CCC(Oc5ccnc6ccsc56)CC4)on3)c3cc(F)c(OC)cc3n2C)CC1)C1CCCCC1` [Example 13, 2-(4-((S)-2-cyclohexyl-2-((S)-2-(methylamino)propanamido)acetyl)piperazine-1-carbonyl)-5-fluoro-6-methoxy-1-methyl-N-(2-(2-(2-((5-((4-(thieno[3,2-b]pyridin-7-yloxy)piperidin-1-yl)methyl)isoxazol-3-yl)oxy)ethoxy)ethoxy)ethyl)-1H-indole-3-carboxamide], in test [1], the IC50 is under 300 nM. Moreover, on IRAK-M, the remaining binding at 1 µM was under 25%.

For the molecule `CN[C@@H](C)C(=O)N[C@H](C(=O)N1CCC[C@H]1c1nc(C(=O)c2cccc(OCCOCCOc3cc(CN4CCC(Oc5ccnc6ccsc56)CC4)on3)c2)cs1)C1CCCCC1` [Example 58, (S)-N-((S)-1-cyclohexyl-2-oxo-2-((S)-2-(4-(3-(2-(2-((5-((4-(thieno[3,2-b]pyridin-7-yloxy)piperidin-1-yl)methyl)isoxazol-3-yl)oxy)ethoxy)ethoxy)benzoyl)thiazol-2-yl)pyrrolidin-1-yl)ethyl)-2-(methylamino)propanamide], the IC50 in test [1] is under 300 nM. Moreover, the remaining binding at 1 µM at IRAK-M was under 25%.

As to `CN[C@@H](C)C(=O)N[C@H](C(=O)N1CCC[C@H]1c1nc(C(=O)c2cccc(OCCOCCOCCOCCOc3cc(CN4CCC(Oc5ccnc6ccsc56)CC4)on3)c2)cs1)C1CCCCC1` [Example 60, (S)-N-((S)-1-cyclohexyl-2-oxo-2-((S)-2-(4-(3-(2-(2-(2-(2-((5-((4-(thieno[3,2-b]pyridin-7-yloxy)piperidin-1-yl)methyl)isoxazol-3-yl)oxy)ethoxy)ethoxy)ethoxy)ethoxy)benzoyl)thiazol-2-yl)pyrrolidin-1-yl)ethyl)-2-(methylamino)propanamide], the IC50 in test [1] is under 300 nM. In addition, on IRAK-M, the remaining binding at 1 µM was under 25%.

`CN[C@@H](C)C(=O)N[C@H](C(=O)N1CCN(C(=O)c2cc3c(OCCOCCOCCOc4cc(CN5CCC(Oc6ccnc7ccsc67)CC5)on4)c(F)c(F)cc3n2C)CC1)C1CCCCC1` [Example 52, (S)-N-((S)-1-cyclohexyl-2-(4-(5,6-difluoro-1-methyl-4-(2-(2-(2-((5-((4-(thieno[3,2-b]pyridin-7-yloxy)piperidin-1-yl)methyl)isoxazol-3-yl)oxy)ethoxy)ethoxy)ethoxy)-1H-indole-2-carbonyl)piperazin-1-yl)-2-oxoethyl)-2-(methylamino)propanamide]: the IC50 in test [1] fell in the range of 300 to 3000 nM. For the same molecule, the remaining binding at 1 µM at IRAK-M was under 25%.

`CN[C@@H](C)C(=O)N[C@H](C(=O)N1CCN(C(=O)c2cc3cc(F)ccc3n2CC(=O)N2C[C@@H](O)C[C@H]2COc2cc(CN3CCC(Oc4ccnc5ccsc45)CC3)on2)[C@@H](C)C1)C1CCCCC1` [Example 42, (S)-N-((S)-1-cyclohexyl-2-((S)-4-(5-fluoro-1-(2-((2S,4S)-4-hydroxy-2-(((5-((4-(thieno[3,2-b]pyridin-7-yloxy)piperidin-1-yl)methyl)isoxazol-3-yl)oxy)methyl)pyrrolidin-1-yl)-2-oxoethyl)-1H-indole-2-carbonyl)-3-methylpiperazin-1-yl)-2-oxoethyl)-2-(methylamino)propanamide]: the inhibition at 3 µM in test [1] is over 25%. In addition, at IRAK-M, the concentration for half-maximal inhibition (IC50) lay within 100 to 300 nM.

(Values after patent US20220402935A1, “HETEROCYCLIC COMPOUND” (FIMECS, INC., priority 2019, published 2022).)
